Reference: BindingDB's records for doi:10.1021/bi3002067 (The University of Auckland, 2012)

Biological target: Salicylate synthase (Mycobacterium tuberculosis (strain CDC 1551 / Oshkosh), UniProt P9WFX0)
Test: Fluorescence-Based Thermal Shift Assay
Protocol: The thermal stability of MbtI in the absence and presence of inhibitors was measured using a fluorescence-based thermal shift assay.

Salicylate synthase, sequence (P9WFX0 whole entry): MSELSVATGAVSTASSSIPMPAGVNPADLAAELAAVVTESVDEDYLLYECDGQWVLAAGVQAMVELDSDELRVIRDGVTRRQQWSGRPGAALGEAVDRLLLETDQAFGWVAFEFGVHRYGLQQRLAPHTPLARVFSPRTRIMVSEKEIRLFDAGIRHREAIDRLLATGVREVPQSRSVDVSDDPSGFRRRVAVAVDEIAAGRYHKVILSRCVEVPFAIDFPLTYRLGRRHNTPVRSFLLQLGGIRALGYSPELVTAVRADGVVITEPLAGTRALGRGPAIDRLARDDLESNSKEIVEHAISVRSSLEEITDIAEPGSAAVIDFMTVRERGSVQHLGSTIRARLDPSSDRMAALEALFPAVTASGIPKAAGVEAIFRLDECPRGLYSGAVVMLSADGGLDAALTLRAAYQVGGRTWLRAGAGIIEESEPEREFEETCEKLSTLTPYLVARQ

O=C(O)C(=CC1CC1)Oc1cccc(C(=O)O)c1O [cyclopropyl-AMT]
Ki: 12 µM
